Measurements from the kinase profiling compilation of Christmann-Franck et al. (2016).

What was measured:
Test in all cases: KINOMEscan competition binding
Conditions in all cases: compound 2.0 µM
[1] = target: HCK (human) (UniProt P08631)
[2] = target: MET (human) (UniProt P08581)
[3] = target: PIM1 (human) (UniProt P11309)
[4] = target: PKN2 (human) (UniProt Q16513)
[5] = target: MAP2K7 (human) (UniProt O14733)
[6] = tested on: KIT (human), P10721 [D816H]
[7] = target: TGFBR2 (human) (UniProt P37173)
[8] = target: PRKD1 (human) (UniProt Q15139)
Chain of PRKD1 (human) (Q15139 whole entry, looked up): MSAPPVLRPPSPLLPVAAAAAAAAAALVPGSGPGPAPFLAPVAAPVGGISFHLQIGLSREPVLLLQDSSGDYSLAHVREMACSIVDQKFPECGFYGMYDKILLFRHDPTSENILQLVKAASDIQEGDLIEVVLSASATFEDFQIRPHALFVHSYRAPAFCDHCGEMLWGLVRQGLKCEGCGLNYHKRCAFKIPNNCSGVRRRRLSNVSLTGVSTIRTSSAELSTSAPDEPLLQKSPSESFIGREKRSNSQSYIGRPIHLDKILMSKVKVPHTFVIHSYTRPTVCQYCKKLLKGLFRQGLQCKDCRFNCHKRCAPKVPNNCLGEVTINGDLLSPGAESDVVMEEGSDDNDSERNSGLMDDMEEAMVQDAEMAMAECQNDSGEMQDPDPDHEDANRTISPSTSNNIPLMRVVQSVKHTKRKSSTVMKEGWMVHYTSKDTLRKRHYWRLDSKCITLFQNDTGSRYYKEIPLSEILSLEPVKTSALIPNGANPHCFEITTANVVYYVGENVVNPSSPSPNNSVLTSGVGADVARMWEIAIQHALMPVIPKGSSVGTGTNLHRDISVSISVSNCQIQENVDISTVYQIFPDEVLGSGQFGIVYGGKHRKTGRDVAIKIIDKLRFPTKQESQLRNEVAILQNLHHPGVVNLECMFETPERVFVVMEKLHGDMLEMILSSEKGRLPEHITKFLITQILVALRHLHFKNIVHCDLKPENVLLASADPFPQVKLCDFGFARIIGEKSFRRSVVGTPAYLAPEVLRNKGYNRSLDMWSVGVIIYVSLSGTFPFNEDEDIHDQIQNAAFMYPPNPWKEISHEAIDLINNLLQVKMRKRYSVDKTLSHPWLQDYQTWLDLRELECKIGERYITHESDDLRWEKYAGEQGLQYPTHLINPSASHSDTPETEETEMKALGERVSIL

[9] = target: CDK8 (human) (UniProt P49336)
[10] = target: BMX (human) (UniProt P51813)
Chain of BMX (human) (P51813 whole entry, looked up): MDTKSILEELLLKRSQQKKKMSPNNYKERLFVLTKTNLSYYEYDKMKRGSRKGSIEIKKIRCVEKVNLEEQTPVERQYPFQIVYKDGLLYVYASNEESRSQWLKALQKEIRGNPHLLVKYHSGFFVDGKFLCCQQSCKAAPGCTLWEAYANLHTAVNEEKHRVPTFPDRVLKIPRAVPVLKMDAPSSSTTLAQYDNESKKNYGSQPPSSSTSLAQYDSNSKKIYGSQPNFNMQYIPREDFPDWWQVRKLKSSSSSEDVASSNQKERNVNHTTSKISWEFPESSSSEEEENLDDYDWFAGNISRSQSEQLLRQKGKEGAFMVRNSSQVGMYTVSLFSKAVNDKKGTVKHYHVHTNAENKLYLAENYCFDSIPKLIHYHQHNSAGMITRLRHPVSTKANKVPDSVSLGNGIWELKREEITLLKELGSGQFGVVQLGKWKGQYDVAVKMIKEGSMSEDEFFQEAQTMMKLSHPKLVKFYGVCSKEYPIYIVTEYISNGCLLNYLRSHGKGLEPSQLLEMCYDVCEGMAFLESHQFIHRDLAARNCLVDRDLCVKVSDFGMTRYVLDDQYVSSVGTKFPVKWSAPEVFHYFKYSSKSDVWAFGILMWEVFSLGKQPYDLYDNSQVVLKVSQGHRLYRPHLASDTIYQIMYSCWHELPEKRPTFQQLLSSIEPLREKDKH

[11] = target: RIOK2 (human) (UniProt Q9BVS4)
[12] = target: TEC (human) (UniProt P42680)
[13] = target: FGFR2 (human) (UniProt P21802)
Chain of FGFR2 (human) (P21802 whole entry, looked up): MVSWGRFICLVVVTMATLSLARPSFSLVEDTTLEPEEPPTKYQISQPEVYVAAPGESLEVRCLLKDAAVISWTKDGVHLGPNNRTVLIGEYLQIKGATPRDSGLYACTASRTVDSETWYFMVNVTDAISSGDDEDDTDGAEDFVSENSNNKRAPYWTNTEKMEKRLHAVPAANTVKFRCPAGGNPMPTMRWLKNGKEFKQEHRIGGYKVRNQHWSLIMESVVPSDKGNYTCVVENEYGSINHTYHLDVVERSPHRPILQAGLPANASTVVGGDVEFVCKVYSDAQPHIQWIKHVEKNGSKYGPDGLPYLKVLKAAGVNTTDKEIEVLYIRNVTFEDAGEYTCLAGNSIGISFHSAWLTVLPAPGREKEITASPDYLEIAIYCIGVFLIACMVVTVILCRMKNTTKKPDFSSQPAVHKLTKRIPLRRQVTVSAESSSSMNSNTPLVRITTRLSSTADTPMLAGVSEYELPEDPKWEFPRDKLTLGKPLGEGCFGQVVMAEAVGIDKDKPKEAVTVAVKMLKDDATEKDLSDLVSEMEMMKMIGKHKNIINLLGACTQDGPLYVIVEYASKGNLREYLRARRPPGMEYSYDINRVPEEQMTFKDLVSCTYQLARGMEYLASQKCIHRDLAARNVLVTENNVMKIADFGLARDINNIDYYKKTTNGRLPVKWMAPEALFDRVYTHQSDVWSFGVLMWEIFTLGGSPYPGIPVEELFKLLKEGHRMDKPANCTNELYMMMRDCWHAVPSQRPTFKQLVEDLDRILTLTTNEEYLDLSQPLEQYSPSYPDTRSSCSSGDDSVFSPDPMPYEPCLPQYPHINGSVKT

[14] = target: DAPK1 (human) (UniProt P53355)
[15] = target: PKMYT1 (human) (UniProt Q99640)
[16] = target: PRKX (human) (UniProt P51817)
[17] = target: SGK3 (human) (UniProt Q96BR1)
[18] = target: LATS2 (human) (UniProt Q9NRM7)
[19] = target: NEK7 (human) (UniProt Q8TDX7)
Chain of NEK7 (human) (Q8TDX7 whole entry, looked up): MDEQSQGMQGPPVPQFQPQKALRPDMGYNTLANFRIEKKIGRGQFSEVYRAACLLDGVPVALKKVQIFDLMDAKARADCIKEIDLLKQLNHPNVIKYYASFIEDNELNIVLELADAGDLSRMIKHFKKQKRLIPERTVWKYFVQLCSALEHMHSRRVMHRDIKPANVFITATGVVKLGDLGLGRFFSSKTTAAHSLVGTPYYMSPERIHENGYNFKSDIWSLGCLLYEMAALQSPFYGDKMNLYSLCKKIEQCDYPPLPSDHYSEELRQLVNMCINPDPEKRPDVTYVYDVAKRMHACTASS

[20] = target: PTK6 (human) (UniProt Q13882)
[21] = target: EPHA8 (human) (UniProt P29322)
[22] = tested on: KIT (human), P10721 [D816V]
Chain of KIT (human), P10721 [D816V] (P10721 whole entry D816V, looked up): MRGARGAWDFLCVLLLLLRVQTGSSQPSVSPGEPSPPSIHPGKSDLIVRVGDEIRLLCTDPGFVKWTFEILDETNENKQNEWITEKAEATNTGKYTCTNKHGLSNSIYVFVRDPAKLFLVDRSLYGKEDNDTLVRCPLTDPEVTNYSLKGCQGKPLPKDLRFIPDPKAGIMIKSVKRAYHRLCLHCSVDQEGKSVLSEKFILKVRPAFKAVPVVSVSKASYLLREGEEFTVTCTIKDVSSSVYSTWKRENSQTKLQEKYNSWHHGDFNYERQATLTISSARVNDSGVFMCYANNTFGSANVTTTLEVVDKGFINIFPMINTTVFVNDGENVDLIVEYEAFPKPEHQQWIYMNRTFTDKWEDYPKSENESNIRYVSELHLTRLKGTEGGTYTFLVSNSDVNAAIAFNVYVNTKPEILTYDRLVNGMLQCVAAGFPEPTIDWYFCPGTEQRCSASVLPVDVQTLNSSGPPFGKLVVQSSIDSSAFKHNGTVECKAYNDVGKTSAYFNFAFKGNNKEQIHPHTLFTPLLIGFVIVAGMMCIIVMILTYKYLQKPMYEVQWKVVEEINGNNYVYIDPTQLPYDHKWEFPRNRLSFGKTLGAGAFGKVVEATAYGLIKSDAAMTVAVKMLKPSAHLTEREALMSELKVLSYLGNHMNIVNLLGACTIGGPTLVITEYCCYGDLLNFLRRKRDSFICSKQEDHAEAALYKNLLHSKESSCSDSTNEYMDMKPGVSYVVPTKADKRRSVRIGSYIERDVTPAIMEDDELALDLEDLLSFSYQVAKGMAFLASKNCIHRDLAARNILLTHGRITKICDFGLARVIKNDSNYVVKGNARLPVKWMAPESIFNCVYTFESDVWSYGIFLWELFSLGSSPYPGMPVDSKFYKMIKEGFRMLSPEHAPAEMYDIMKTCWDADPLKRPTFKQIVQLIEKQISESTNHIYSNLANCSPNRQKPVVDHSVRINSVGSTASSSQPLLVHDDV

[23] = target: BMP2K (human) (UniProt Q9NSY1)
[24] = target: PIP5K1C (human) (UniProt O60331)
Chain of PIP5K1C (human) (O60331 whole entry, looked up): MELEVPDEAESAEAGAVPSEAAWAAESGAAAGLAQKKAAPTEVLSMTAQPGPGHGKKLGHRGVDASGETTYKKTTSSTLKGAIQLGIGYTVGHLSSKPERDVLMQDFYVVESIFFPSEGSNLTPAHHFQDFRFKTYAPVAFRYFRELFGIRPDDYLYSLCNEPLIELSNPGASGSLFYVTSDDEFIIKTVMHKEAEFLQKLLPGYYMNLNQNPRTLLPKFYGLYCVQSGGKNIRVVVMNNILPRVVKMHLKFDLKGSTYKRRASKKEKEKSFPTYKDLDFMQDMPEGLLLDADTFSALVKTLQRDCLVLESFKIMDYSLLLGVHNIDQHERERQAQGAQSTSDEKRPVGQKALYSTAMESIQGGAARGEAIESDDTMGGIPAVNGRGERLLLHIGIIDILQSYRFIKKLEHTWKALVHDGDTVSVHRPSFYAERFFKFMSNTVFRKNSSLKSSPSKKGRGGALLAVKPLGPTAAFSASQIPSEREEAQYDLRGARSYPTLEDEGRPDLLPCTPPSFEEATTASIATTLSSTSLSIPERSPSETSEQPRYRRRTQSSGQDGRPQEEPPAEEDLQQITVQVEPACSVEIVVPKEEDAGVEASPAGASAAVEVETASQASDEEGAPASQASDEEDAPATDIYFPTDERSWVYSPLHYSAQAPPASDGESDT

[25] = target: RIPK2 (human) (UniProt O43353)
[26] = target: STK39 (human) (UniProt Q9UEW8)
[27] = target: CDK2 (human) (UniProt P24941)
[28] = tested on: EGFR (human), P00533 [G719S]
[29] = target: TYRO3 (human) (UniProt Q06418)
[30] = target: GRK7 (human) (UniProt Q8WTQ7)
[31] = target: EPHB3 (human) (UniProt P54753)
[32] = tested on: EGFR (human), P00533 [752-759 del]
[33] = target: IRAK1 (human) (UniProt P51617)
[34] = tested on: RET (human), P07949 [V804L]
[35] = target: NEK11 (human) (UniProt Q8NG66)
[36] = target: TNK1 (human) (UniProt Q13470)
[37] = target: SRMS (human) (UniProt Q9H3Y6)
[38] = tested on: ABL1 (human), P00519 [Y253F]
[39] = target: DDR2 (human) (UniProt Q16832)
[40] = target: MAP3K6 (human) (UniProt O95382)
[41] = tested on: PIK3CA (human), P42336 [I800L]
[42] = target: MKNK2 (human) (UniProt Q9HBH9)
[43] = target: RPS6KA2 KD2 (human) (UniProt Q15349)

Chain of MAP2K7 (human) (O14733 whole entry, looked up): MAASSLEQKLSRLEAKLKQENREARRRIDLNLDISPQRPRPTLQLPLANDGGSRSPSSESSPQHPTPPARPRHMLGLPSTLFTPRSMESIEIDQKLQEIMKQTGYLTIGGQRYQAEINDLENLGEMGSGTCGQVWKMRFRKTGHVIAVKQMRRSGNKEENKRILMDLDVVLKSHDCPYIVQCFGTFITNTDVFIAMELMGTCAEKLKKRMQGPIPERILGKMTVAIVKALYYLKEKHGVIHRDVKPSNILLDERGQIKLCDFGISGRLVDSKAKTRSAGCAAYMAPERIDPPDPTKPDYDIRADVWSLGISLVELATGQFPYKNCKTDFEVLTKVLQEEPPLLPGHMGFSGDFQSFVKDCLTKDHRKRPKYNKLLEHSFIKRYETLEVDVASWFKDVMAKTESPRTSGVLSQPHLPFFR
Chain of KIT (human), P10721 [D816H] (P10721 whole entry D816H, looked up): as the sequence (P10721 whole entry D816V, looked up) above, with V816H counted along it

## N#Cc1ccc2ncnc(NCCc3ccc4ccccc4c3)c2c1
[1]
  kinase still bound, per cent of control: 88%
[2]
  kinase still bound, per cent of control: 100%
[3]
  kinase still bound, per cent of control: 95%
[4]
  kinase still bound, per cent of control: 100%
[5]
  kinase still bound, per cent of control: 94%
[6]
  kinase still bound, per cent of control: 100%
[7]
  kinase still bound, per cent of control: 92%
[8]
  kinase still bound, per cent of control: 100%
[9]
  kinase still bound, per cent of control: 8.7%
[10]
  kinase still bound, per cent of control: 97%
[11]
  kinase still bound, per cent of control: 94%
[12]
  kinase still bound, per cent of control: 100%
[13]
  kinase still bound, per cent of control: 90%
[14]
  kinase still bound, per cent of control: 89%
[15]
  kinase still bound, per cent of control: 100%
[16]
  kinase still bound, per cent of control: 93%
[17]
  kinase still bound, per cent of control: 100%
[18]
  kinase still bound, per cent of control: 100%
[19]
  kinase still bound, per cent of control: 100%
[20]
  kinase still bound, per cent of control: 96%
[21]
  kinase still bound, per cent of control: 87%
[22]
  kinase still bound, per cent of control: 85%
[23]
  kinase still bound, per cent of control: 68%
[24]
  kinase still bound, per cent of control: 100%
[25]
  kinase still bound, per cent of control: 100%
[26]
  kinase still bound, per cent of control: 98%
[27]
  kinase still bound, per cent of control: 93%
[28]
  kinase still bound, per cent of control: 86%
[29]
  kinase still bound, per cent of control: 87%
[30]
  kinase still bound, per cent of control: 100%
[31]
  kinase still bound, per cent of control: 100%
[32]
  kinase still bound, per cent of control: 80%
[33]
  kinase still bound, per cent of control: 98%
[34]
  kinase still bound, per cent of control: 92%
[35]
  kinase still bound, per cent of control: 99%
[36]
  kinase still bound, per cent of control: 90%
[37]
  kinase still bound, per cent of control: 84%
[38]
  kinase still bound, per cent of control: 100%
[39]
  kinase still bound, per cent of control: 100%
[40]
  kinase still bound, per cent of control: 100%
[41]
  kinase still bound, per cent of control: 85%
[42]
  kinase still bound, per cent of control: 98%
[43]
  kinase still bound, per cent of control: 85%
